Values of other authors in patent US20100239707A1 (priority 2007, published 2010).
Entries after “also recorded” stand apart in the source; their conditions may differ.

How the values were obtained:
[1] = not given; remark: listed apart in the source
[2] = unprimed

COc1cc2c(c(OC)c1OC)-c1ccc(OC)c(=O)cc1[C@@H](NC(C)=O)CC2 [colchicine]
effect on muscle fibers / myotubes (myotubes): causes the disassembly of myotubes

OO [hydrogen peroxide]
concentration inducing apoptosis (cell culture cells): micromolar concentrations

COc1ccc(CNc2nc(NCc3ccc(OC)cc3)c3ncn(C(C)C)c3n2)cc1 [myoseverin]
effect on muscle fibers / myotubes (myotubes): result in cell fission with cells that exhibit DNA sysnthesis and cell growth

CC[C@]1(O)C[C@@H]2CN(CCc3c([nH]c4ccccc34)[C@@](C(=O)OC)(c3cc4c(cc3OC)N(C)[C@H]3[C@@](O)(C(=O)OC)[C@H](OC(C)=O)[C@]5(CC)C=CCN6CC[C@]43[C@@H]65)C2)C1 [vinblastine]
oral LD50: 300 to 400 mg/kg | effect on muscle fibers / myotubes (myotubes): causes the disassembly of myotubes

COC(=O)Nc1nc2ccc(C(=O)c3cccs3)cc2[nH]1 [nocodazole]
effect on muscle fibers / myotubes (myotubes): causes the disassembly of myotubes; also recorded: result in cell fission with cells that exhibit DNA sysnthesis and cell growth

CC(=O)O[C@H]1C(=O)[C@@]2(C)[C@H]([C@H](OC(=O)c3ccccc3)[C@]3(O)C[C@H](OC(=O)[C@H](O)[C@@H](NC(=O)c4ccccc4)c4ccccc4)C(C)=C1C3(C)C)[C@]1(OC(C)=O)CO[C@@H]1C[C@@H]2O [taxol]
intravenous LD50 [1]: 33 mg/kg | effect on muscle fibers / myotubes (myotubes): causes the disassembly of myotubes

lipopolysaccharide [LPS]
LD50 [2]: ~1 mg/kg

[Ca+2].[Cl-].[Cl-] [anhydrous CaCl2, CaCl2]
intravenous LD50 [1]: about 40 mg/kg
